Laboratory results published in US7892840B2, “Media compositions for eluting compounds from matrices and methods for making and using them” (Medtronic MiniMed, Inc., priority 2008, dated 2011).
Where two headings read alike, the source gives them in different places.

Columns and labels:
[1] = cited from earlier work
[2] = Elution of dexamethasone sodium phosphate from drug coated pace maker leads in conventional media; assay type: physicochemical; conditions: e.g. a media that utilizes just a surfactant
Description: The data disclosed in FIGS. 1-6 provides illustrative embodiments of the methods of invention that examine the elution of dexamethasone sodium phosphate from a polymeric silicone matrix. These examples provide an illustration of the power of the methodological embodiments of the invention, in particular in view of the fact that the elution of dexamethasone sodium phosphate from silicone polymer/drug coated pace maker leads is known to be minimal in conventional solvents. For example, certain elution media and methods may not be ideal for all drugs (e.g. dexamethasone sodium phosphate). For example, dexamethasone sodium phosphate is water soluble whereas typical methodologies described in the art are more suitable for water insoluble or sparingly soluble drugs. […]
While the methodological embodiments of the invention can be used to assess the elution of a wide variety of compounds from a wide variety of matrices, these methods of the invention are particularly useful in the context of the manufacture of drug eluting implantable medical devices. For example, the safety and efficacy of drug coated pace maker leads are readily evaluated using the unique dissolution methods and materials disclosed herein. […]

[3] = assay type: physicochemical
Protocol: To evaluate buffers with different pH, Dexamethasone sodium phosphate can be dissolved in an elution media (e.g. one of the different embodiments of the invention disclosed herein). […] This concentration was about 10 times the concentration that might be observed if the drug from the typical device was completely eluted in about 75 mL of media.

[4] = cited from earlier work; remark: listed apart in the source

Row | elution of the drug in conventional media systems [2] | stability with respect to pH (rank order) [3] | SMILES | miscibility in alcohols and ether ([1]; alcohols and ether) | solubility in water [1] [g/100 mL] | elution from silicone polymer/drug coated pace maker leads in conventional solvents [4] | solubility in water ([1]; in words) | solubility in water ([1]; in words, listed as dexamethasone sodium phosphate)
1 |  |  | OCc1ccccc1 [Benzyl alcohol, Phenylmethanol] | completely miscible | 4 |  |  | 
2 | minimal | pH 4>pH 7.5>pH 9 | C[C@@H]1C[C@H]2[C@@H]3CCC4=CC(=O)C=C[C@]4(C)[C@@]3(F)[C@@H](O)C[C@]2(C)[C@@]1(O)C(=O)COP(=O)(O)O [Dexamethasone sodium phosphate] |  |  | minimal | freely soluble in water | water soluble
